# In ChEMBL document CHEMBL4334471, “Discovery of 1,8-disubstituted-[1,2,3]triazolo[4,5-c]quinoline derivatives as a new class of Hippo signaling pathway inhibitors” (Bioorg Med Chem Lett, 2019):
# Columns and labels:
# [1] = molecular target: Serine/threonine-protein kinase Nek7 (Homo sapiens) (UniProt Q8TDX7); assay: Inhibition of recombinant human NEK7 (2 to end residues) assessed as residual activity at 10 uM using FLAKSFGSPNRAYKK as substrate measured after 40 mins in presence of [gamma33P]ATP by scintillation counting based radiometry assay relative to control
# [2] = molecular target: MAP/microtubule affinity-regulating kinase 4 (Homo sapiens) (UniProt Q96L34); assay: Inhibition of recombinant full length human MARK4 assessed as residual activity at 10 uM using KKKVSRSGLYRSPSMPENLNRPR as substrate incubated for 40 mins in presence of [gamma-33ATP by scintillation counting based radiometry assay relative to control
# [3] = molecular target: Serine/threonine-protein kinase 25 (Homo sapiens) (UniProt O00506); assay: Inhibition of recombinant human STK25 (1 to 308 residues) assessed as residual activity at 10 uM using RLGRDKYKTLRQIRQ as substrate incubated for 40 mins in presence of [gamma33P]ATP by scintillation counting based radiometry assay relative to control
# [4] = molecular target: Interferon-induced, double-stranded RNA-activated protein kinase (Homo sapiens) (UniProt P19525); assay: Inhibition of recombinant human PKR (252 to end residues) assessed as residual activity at 10 uM using RSRSRSRSRSRSRSR as substrate incubated for 40 mins in presence of [gamma33P]ATP by scintillation counting based radiometry assay relative to control
# [5] = molecular target: Serine/threonine-protein kinase ULK2 (Homo sapiens) (UniProt Q8IYT8); assay: Inhibition of recombinant human ULK2 (1 to 306 residues) assessed as residual activity at 10 uM using casein as substrate incubated for 40 mins in presence of [gamma33P]ATP by scintillation counting based radiometry assay relative to control
# [6] = system: Phosphorylase b kinase gamma catalytic chain, liver/testis isoform (Homo sapiens), P15735 [F290L]; assay: Inhibition of recombinant human PhKgamma2 F290L mutant (1 to 301 residues) assessed as residual activity at 10 uM using KKLNRTLSFAEPG as substrate incubated for 40 mins in presence of [gamma33P]ATP by scintillation counting based radiometry assay relative to control
# [7] = system: Ribosomal protein S6 kinase beta-1 (Homo sapiens), P23443 [T412E]; assay: Inhibition of recombinant human p70S6K T412E mutant (1 to 421 residues) assessed as residual activity at 10 uM using KKRNRTLTV as substrate measured after 40 mins in presence of [gamma33P]ATP by scintillation counting based radiometry assay relative to control
# [8] = system: Angiopoietin-1 receptor (Homo sapiens), Q02763 [Q939H,Q940H,R849W]; assay: Inhibition of recombinant human TIE2 Q939H/Q940H/R849W mutant (771 to end residues) assessed as residual activity at 10 uM using EFPIYDFLPAKKK as substrate incubated for 40 mins in presence of [gamma33P]ATP by scintillation counting based radiometry assay relative to control
# [9] = molecular target: Cyclin-dependent kinase-like 4 (Homo sapiens) (UniProt Q5MAI5); assay: Inhibition of recombinant full length human CDKL4 assessed as residual activity at 10 uM in presence of [gamma-33ATP] by scintillation counting based radiometry assay relative to control
# [10] = molecular target: Homeodomain-interacting protein kinase 2 (Homo sapiens) (UniProt Q9H2X6); assay: Inhibition of human HIPK2 (165 to 564 residues) assessed as residual activity at 10 uM using myelin basic protein as substrate after 40 mins by [gamma-33ATP] radiometric assay relative to control
# [11] = molecular target: MAPK/MAK/MRK overlapping kinase (Homo sapiens) (UniProt Q9UQ07); assay: Inhibition of recombinant human MOK (1 to 343 residues) assessed as residual activity at 10 uM using RSRSRSRSRSRSR as substrate incubated for 40 mins in presence of [gamma-33ATP by scintillation counting based radiometry assay relative to control
# [12] = system: eIF-2-alpha kinase GCN2 (Homo sapiens), Q9P2K8 [E556G]; assay: Inhibition of recombinant full length human GCN2 E556G mutant assessed as residual activity at 10 uM using RSRSRSRSRSRSR as substrate at 40 mins in presence of [gamma-33ATP] by scintillation counting based radiometry assay relative to control
# [13] = molecular target: Serine/threonine-protein kinase DCLK3 (Homo sapiens) (UniProt Q9C098); assay: Inhibition of recombinant human DCAMKL3 (345 to end residues) assessed as residual activity at 10 uM using KKLNRTLSFAEPG as substrate at 40 mins in presence of [gamma-33ATP] by scintillation counting based radiometry assay relative to control
# [14] = molecular target: Casein kinase 2 (Homo sapiens) (UniProt P67870+P68400+P19784+Q8NEV1); assay: Inhibition of recombinant human CK2 assessed as residual activity at 10 uM in presence of [gamma-33ATP] by scintillation counting based radiometry assay relative to control; assay type: protein assay
# [15] = system: RAC-beta serine/threonine-protein kinase (Homo sapiens), P31751 [S474D]; assay: Inhibition of recombinant human PKBbeta S474D mutant (120 to end residues) assessed as residual activity at 10 uM using GRPRTSSFAEGKK as substrate incubated for 40 mins in presence of [gamma33P]ATP by scintillation counting based radiometry assay relative to control
# Homo sapiens = species: Homo sapiens; assay: Inhibition of recombinant full length human Aurora A I31F mutant assessed as residual activity at 10 uM using LRRASLG as substrate incubated for 40 mins in presence of [gamma-33ATP] by scintillation counting based radiometry assay relative to control
# Mus musculus = species: Mus musculus; assay: Inhibition of recombinant full length mouse PI3K p110/p65 assessed as residual activity at 10 uM using phosphatidylinositol-4, 5-bisphosphate as substrate incubated for 40 mins in presence of [gamma33P]ATP by scintillation counting based radiometry assay relative to control
# [16] = molecular target: Phosphorylase b kinase gamma catalytic chain, skeletal muscle/heart isoform (Homo sapiens) (UniProt Q16816); assay: Inhibition of recombinant full-length human PhKgamma1 assessed as residual activity at 10 uM using KKLNRTLSFAEPG as substrate incubated for 40 mins in presence of [gamma33P]ATP by scintillation counting based radiometry assay relative to control
# [17] = molecular target: Inhibitor of nuclear factor kappa-B kinase subunit alpha (Homo sapiens) (UniProt O15111); assay: Inhibition of full length human IKKalpha assessed as residual activity at 10 uM using peptide as substrate after 40 mins by [gamma-33ATP] radiometric assay relative to control
# [18] = molecular target: Mitogen-activated protein kinase 10 (Homo sapiens) (UniProt P53779); assay: Inhibition of human JNK3 assessed as residual activity at 10 uM using peptide as substrate after 40 mins by [gamma-33ATP] radiometric assay relative to control
# [19] = molecular target: Mast/stem cell growth factor receptor Kit (Homo sapiens) (UniProt P10721); assay: Inhibition of recombinant human C-Kit (544 to end residues) using poly(Glu, Tyr) 4:1 as substrate assessed as residual activity at 10 uM in presence of [gamma-33ATP] by scintillation counting based radiometry assay relative to control
# Sequence of Inhibitor of nuclear factor kappa-B kinase subunit alpha (Homo sapiens) (O15111 whole entry): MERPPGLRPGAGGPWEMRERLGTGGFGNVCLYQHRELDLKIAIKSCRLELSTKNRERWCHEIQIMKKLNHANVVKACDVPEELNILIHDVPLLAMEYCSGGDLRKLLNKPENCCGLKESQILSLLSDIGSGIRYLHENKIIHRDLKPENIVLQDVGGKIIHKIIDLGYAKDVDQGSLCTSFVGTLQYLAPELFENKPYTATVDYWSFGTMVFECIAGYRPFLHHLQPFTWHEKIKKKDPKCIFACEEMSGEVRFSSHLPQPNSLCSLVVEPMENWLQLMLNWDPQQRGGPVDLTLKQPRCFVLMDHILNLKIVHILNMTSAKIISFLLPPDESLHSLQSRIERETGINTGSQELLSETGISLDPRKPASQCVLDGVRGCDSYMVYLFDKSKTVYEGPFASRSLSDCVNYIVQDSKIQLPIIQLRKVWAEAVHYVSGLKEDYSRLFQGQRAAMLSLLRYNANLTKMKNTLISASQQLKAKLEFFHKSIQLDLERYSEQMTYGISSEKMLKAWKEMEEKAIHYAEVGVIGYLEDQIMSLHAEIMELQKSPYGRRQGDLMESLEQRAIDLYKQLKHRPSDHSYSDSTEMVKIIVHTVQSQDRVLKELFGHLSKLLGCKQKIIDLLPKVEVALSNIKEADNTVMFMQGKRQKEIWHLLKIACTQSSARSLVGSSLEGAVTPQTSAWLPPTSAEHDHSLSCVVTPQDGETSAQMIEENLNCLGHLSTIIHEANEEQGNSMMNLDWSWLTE
# Sequence of Homeodomain-interacting protein kinase 2 (Homo sapiens) (Q9H2X6 whole entry, looked up, the tested form may be a part): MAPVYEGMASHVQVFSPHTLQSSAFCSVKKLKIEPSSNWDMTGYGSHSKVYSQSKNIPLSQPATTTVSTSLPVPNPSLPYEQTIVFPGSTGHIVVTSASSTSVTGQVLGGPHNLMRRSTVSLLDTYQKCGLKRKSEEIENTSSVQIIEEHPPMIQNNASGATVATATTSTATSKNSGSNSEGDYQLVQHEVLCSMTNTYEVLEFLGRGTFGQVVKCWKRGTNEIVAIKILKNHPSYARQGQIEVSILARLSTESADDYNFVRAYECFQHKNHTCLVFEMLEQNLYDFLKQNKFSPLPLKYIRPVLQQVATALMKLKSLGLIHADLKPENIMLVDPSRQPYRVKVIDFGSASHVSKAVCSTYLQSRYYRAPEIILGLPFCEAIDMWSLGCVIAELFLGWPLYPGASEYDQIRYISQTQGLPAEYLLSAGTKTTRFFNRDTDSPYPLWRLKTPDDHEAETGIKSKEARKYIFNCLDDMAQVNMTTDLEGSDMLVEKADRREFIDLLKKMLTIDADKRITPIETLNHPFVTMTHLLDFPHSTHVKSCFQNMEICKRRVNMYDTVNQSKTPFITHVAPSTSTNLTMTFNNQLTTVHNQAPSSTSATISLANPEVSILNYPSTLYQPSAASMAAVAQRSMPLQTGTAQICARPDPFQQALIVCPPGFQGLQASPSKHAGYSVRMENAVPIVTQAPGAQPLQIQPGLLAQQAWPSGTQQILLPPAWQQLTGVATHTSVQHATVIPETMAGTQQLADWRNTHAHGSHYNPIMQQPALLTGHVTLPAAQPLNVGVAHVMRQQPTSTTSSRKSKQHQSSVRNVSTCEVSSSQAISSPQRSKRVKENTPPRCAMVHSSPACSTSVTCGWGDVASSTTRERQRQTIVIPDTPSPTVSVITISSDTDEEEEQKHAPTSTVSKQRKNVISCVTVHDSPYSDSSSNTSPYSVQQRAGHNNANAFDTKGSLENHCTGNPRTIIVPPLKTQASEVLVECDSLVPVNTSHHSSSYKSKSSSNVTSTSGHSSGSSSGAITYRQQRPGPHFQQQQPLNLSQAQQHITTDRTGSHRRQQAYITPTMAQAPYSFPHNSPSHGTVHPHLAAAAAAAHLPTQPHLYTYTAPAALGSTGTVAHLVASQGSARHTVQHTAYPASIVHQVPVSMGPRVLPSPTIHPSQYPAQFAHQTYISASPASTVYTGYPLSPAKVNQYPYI
# Sequence of Phosphorylase b kinase gamma catalytic chain, liver/testis isoform (Homo sapiens), P15735 [F290L] (P15735 whole entry F290L, the tested form may be a part, canonical isoform): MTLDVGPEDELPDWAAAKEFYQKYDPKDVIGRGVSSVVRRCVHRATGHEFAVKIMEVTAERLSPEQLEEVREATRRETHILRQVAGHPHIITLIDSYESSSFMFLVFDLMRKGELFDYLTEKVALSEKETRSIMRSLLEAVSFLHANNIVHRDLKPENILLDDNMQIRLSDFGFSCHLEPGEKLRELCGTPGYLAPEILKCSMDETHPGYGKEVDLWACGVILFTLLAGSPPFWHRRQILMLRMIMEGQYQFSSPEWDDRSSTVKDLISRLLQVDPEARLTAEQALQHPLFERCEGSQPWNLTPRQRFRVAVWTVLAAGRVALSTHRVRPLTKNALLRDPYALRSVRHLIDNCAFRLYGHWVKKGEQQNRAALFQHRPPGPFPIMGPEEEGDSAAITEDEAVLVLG
# Sequence of Serine/threonine-protein kinase ULK2 (Homo sapiens) (Q8IYT8 whole entry, the tested form may be a part, canonical isoform): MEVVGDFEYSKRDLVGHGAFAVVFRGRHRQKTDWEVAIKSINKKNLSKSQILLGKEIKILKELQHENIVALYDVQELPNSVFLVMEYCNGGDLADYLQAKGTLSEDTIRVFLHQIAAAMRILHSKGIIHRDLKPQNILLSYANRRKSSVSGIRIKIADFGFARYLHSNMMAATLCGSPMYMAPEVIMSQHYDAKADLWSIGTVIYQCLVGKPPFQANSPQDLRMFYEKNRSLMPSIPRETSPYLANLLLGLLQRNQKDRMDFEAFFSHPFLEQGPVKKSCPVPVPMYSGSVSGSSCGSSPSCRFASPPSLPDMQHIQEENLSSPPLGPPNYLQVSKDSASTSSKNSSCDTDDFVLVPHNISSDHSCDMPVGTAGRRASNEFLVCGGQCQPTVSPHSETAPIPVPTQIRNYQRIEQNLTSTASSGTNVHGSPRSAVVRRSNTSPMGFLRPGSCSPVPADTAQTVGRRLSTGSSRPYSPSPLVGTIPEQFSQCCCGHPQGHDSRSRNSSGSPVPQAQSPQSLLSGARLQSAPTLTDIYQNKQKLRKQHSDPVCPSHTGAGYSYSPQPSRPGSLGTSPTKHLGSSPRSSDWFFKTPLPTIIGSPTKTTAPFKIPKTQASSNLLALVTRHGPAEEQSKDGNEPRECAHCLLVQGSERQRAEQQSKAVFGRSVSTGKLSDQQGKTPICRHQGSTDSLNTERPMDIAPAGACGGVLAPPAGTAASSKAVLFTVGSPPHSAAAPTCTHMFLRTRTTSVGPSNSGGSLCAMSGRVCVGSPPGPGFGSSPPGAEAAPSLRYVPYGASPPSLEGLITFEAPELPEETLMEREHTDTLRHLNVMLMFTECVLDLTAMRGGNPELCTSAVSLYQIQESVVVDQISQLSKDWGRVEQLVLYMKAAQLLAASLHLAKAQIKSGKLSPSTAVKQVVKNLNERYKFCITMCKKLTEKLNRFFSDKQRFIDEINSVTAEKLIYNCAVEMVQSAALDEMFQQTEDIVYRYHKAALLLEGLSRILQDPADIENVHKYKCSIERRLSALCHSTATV
# Sequence of Angiopoietin-1 receptor (Homo sapiens), Q02763 [Q939H,Q940H,R849W] (Q02763 whole entry R849W/Q939H/Q940H): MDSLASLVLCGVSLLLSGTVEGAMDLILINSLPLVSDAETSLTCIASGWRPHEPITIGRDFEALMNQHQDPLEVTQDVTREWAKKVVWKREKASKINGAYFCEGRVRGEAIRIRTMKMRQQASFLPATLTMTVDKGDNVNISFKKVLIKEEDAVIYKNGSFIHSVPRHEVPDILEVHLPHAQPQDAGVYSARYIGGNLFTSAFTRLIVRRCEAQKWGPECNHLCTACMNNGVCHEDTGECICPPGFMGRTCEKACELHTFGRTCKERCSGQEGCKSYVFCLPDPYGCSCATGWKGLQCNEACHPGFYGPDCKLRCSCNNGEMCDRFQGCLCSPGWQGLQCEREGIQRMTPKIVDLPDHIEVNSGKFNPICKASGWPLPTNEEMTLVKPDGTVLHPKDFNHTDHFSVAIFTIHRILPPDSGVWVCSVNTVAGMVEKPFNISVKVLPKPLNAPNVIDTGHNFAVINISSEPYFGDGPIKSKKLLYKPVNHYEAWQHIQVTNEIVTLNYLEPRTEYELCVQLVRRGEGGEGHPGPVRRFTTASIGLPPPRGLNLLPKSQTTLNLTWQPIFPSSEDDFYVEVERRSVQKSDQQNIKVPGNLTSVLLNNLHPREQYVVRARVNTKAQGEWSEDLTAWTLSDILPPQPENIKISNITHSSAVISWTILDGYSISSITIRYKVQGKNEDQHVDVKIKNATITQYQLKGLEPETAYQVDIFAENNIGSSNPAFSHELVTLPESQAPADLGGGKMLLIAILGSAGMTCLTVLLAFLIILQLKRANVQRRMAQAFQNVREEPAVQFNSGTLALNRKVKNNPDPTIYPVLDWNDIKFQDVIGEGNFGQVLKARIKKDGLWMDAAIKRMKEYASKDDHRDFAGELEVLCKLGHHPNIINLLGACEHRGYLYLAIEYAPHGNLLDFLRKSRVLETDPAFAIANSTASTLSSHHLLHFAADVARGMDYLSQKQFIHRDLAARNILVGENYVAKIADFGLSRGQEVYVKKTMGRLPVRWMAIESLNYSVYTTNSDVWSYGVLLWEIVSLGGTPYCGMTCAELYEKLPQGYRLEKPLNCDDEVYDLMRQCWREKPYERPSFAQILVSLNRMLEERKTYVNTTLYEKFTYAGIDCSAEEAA
# Sequence of Mitogen-activated protein kinase 10 (Homo sapiens) (P53779 whole entry): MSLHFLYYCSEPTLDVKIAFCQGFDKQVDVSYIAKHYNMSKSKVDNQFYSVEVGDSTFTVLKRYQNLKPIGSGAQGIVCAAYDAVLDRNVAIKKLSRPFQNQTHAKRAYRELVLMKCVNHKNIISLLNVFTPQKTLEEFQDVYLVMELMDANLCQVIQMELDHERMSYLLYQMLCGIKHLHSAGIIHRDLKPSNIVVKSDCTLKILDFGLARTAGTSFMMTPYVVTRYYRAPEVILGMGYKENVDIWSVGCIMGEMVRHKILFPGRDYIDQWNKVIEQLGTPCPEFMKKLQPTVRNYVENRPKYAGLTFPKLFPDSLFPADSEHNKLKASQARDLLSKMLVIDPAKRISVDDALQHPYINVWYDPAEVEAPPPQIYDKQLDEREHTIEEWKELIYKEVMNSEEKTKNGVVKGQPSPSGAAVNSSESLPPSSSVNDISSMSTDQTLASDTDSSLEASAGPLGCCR
smiles,measurement,setting,value
C[C@@H](c1ccccc1)n1nnc2cnc3ccc(-c4cnc5[nH]ccc5c4)cc3c21,Activity,[1],119%
same,Activity,[2],89%
same,Activity,[3],76%
same,Activity,[4],81%
same,Activity,[5],98%
same,Activity,[6],65%
same,Activity,[7],54%
same,Activity,[8],103%
same,Activity,[9],96%
same,Activity,[10],93%
same,Activity,[11],99%
same,Activity,[12],93%
same,Activity,[13],66%
same,Activity,[14],82%
same,Activity,[15],61%
same,Activity,Homo sapiens,69%
same,Activity,Mus musculus,14%
same,Activity,[16],70%
same,Activity,[17],90%
same,Activity,[18],47%
same,Activity,[19],103%
